Tests used:
[1] = test system: Akt phosphorylation (Ser473) in bone marrow-derived macrophages (BMDM); experiment: Akt phosphorylation in BMDM stimulated with C5a; type: cell-based, mouse; details: C5a 25 nM
Method: BMDMs were obtained from bone marrows isolated from femurs and tibias of C57BL/6J mice. Bone marrow cells were cultured in a petri plate in the presence of RPMI additioned with 30% L-cell conditioned medium (supernatant of 5 days culture of L929 cells), 20% FBS and 100 μg/ml penicillin and streptomycin. After about 7 days, almost all cells became attached BMDM. BMDM were pretreated with Versene (GIBCO^TM #15040066) to detach them from the plate, washed, and placed on a 24 wells culture plate at a density of 2 × 10^5 cell/well in RPMI free medium. After 6 h of starvation, BMDMs were pretreated with CL27c at different concentrations and stimulated with C5a (25 nM, Sigma-Aldrich #SRP4895A) for 5 min. Proteins were extracted with Laemnli buffer.
For all cell types, phosphorylated Akt (P-Akt, Ser 473, 1:100, Cell Signaling Technology #4060) production was detected by western blot analysis and quantified with ChemiDoc™ XRS system. P-Akt signals are normalized on endogenous. For the calculation of EC50 values, a percentage of residual P-Akt was calculated for each inhibitor concentration by using the control vehicle as 100%. To derive the EC50, all data were plotted on a dose response curve (Graph Pad software) and the EC50 was calculated by using the non-linear regression fit (equation [log agonist] vs response–variable slope). […]
panel). […] The respective EC50 was calculated by using nonlinear

[2] = test system: bleomycin-induced lung fibrosis; experiment: Bleomycin-induced lung injury and fibrosis in mice; type: in vivo, C57BL/6J mice
Method: Eight-to-ten-week-old C57BL/6J males were used in bleomycin-induced lung injury and fibrosis model[10],[51]. Briefly, a single 40 µl injection containing 3.75 or 2 mg/kg of bleomycin sulfate (Sigma Aldrich-MERCK #B1141000) diluted in PBS or PBS only (vehicle) was instilled intratracheally. […]
Levels of hydroxyproline in lung tissues were measured using the Hydroxyproline Assay kit (Sigma-Audrich, St. Louis, MO, USA) according to the manufacturer’s instructions. Briefly, 10 mg of pulverized frozen lungs homogenized in 100 µL of concentrated hydrochloric acid (HCl, 12 M), and hydrolyzed at 120 °C for 3 h. Then, 5 µL of each sample in triplicate were used to the assay. […] The absorbance was obtained at 560 nm. The final results are expressed as concentration of hydroxyproline in µg/mL.
The left lung was removed and fixed in 4% neutral phosphate-buffered formalin (pH 7.4)[10]. The tissues were dehydrated gradually in ethanol, embedded in paraffin, cut into 4 µm sections, stained with H&E, Gomori’s trichrome and periodic acid schiff (PAS), and examined under light microscopy by a pathologist in a double blinded manner. Images of lung sections were captured with a digital camera (Optronics DEI-470) connected to a microscope (Olympus IX70) with a magnification of ×40 or ×100. Inflammation was scored according to modification of existing protocols[53] and to the histopathology criteria reported in Supplementary Table 4. […]
For quantitative measurements, total RNA was extracted from lung tissues using the High Pure RNA isolation kit (Invitrogen, Life Technologies, Paisley, UK) and reverse-transcribed with the Superscript first-strand synthesis system kit (Invitrogen, Life Technologies, Paisley, UK). Specific mRNA sequences were quantified by real-time PCR with primer/probe combinations based on the Roche Universal ProbeLibrary Set, Mouse (Tgfb1 probe: #72, Ctgf probe: #71, Col1a1 probe: #15 and Mmp2 probe #49). Primer sequences are listed in Supplementary Table 5.

[3] = late treatment, day 17 to day 27
[4] = moderate model, bleomycin 2 mg/kg, aerosolized CL27c 2 mg/ml
[5] = moderate model, therapeutic aerosolized CL27c
[6] = severe model, bleomycin 3.75 mg/kg

## COC(=O)c1cccc(Cn2cc(-c3cccc4c(=O)cc(N5CCOCC5)[nH]c34)nn2)c1 [CL27c]
[1]
  Akt/PKB phosphorylation: readily reduced Akt/PKB phosphorylation
[2]; bleomycin model
  Akt phosphorylation in lung protein extracts and sections: blunted the increase of Akt phosphorylation
[2]; [3]
  lung function: improved lung function
  mortality: significantly blunts mortality
[2]; late treatment, day 17 to day 27 after bleomycin 2 mg/kg
  fibrotic collagen deposition: still effective in reducing fibrotic collagen deposition
[2]; moderate model
  lung elasticity (pulmonary compliance) restored, relative to controls: 75 % of controls
  lung resistance: reduce the gain in lung resistance almost to the level of healthy mice
[2]; moderate model, 22 days after instillation, bleomycin alone 50% mortality
  survival: 100%
[2]; moderate model, bleomycin 2 mg/kg
  fibrotic remodeling (Ashcroft score, collagen content): significantly reduce fibrotic remodeling
[2]; [4]
  abundance of active TGF-β1: significantly decreased the abundance of active TGF-β1
  mRNA levels of Tgfb1, Ctgf, Col1a1, Mmp2: attenuated mRNA levels of Tgfb1
  neutrophil-derived MPO levels in the lungs: markedly reduced
[2]; moderate model, bleomycin 2 mg/kg, aerosolized CL27c 2 mg/ml day 10 to 21
  airway inflammation (BALF cells): markedly reduced airway inflammation
[2]; moderate model, day 22
  histopathological inflammation score: significantly attenuated in airways, vasculature, and parenchyma
[2]; [5]
  TLC, inspiratory capacity, forced vital capacity, and FEV: significant recovery back to normal levels
  pressure–volume curve: significantly improved the pressure–volume curve
[2]; [6]
  hydroxyproline deposition in lungs: significantly decreased hydroxyproline deposition in lungs
  infiltration of macrophages and neutrophils: reduced infiltration of either macrophages or neutrophils
[2]; severe model, bleomycin 3.75 mg/kg, CL27c could not protect
  mortality within 21 days: 100%

Source: paper PMC6290777, “Inhalation of the prodrug PI3K inhibitor CL27c improves lung function in asthma and fibrosis” (Nature Communications, 2018)
